The values that follow come from US11932897B2, “Biosynthesis of curcuminoids in mammalian cells” (University of Kentucky Research Foundation, priority 2018, dated 2024).

Series [1] deals with reactive oxygen species (ROS) within cells. Kind of series: CellROX Deep Red assay of cellular oxidative stress after H2O2 treatment. In kind it is cell-based. The following applies: for effect on CellROX fluorescence / oxidation (in words): 1 mM H2O2 for 30 min, then CellROX Deep Red, transfected cells in substrate-supplemented media, or supplemented media alone. On the procedure: Cells were exposed to 1 mM H2O2 for 30 min before incubation with CellROX Deep Red. Blank: untransfected cells. F: ferulic acid-supplemented media. P: p-courmaric acid-supplemented media. pGL3: luciferase-encoding plasmid.
Additionally, the antioxidant potential of heterologously produced curcuminoids was investigated using CellROX Deep Red (Invitrogen, Carlsbad, Calif.), a fluorogenic probe for cellular oxidative stress. The cell-permeable CellROX dye is non-fluorescent in its reduced state but becomes highly fluorescent upon oxidation by reactive oxygen species (ROS) within cells. Cells were treated with 1 mM H2O2 to induce oxidative stress and subsequently incubated with CellROX before quantifying the resulting fluorescence (FIG. 11).

Series [2] deals with radiation-induced oral mucositis. Kind of series: Syrian hamster model of radiation-induced oral mucositis. The following applies: sustained presence of curcumin from in vivo biosynthesis, versus irradiated hamsters without treatment or with positive control; 60 Gy. The text has this:
Briefly, the hamster is anesthetized, the left cheek pouch is clamped between acrylic sheets to hold it in place, and each cheek pouch is exposed to 60 Gy total irradiation in a linear accelerator (LINAC). The use of the LINAC system provides gamma radiation exposure, is clinically relevant, and provides tight control of the radiation dose, reducing animal-to-animal exposure differences. For up to three weeks after irradiation, the hamsters is weighed daily and cheeks extracted to evaluate injury based on a well-established, validated scale (Table 2).
Equal numbers of male and female hamsters are randomly divided into groups (n=8). Negative controls comprise non-irradiated, non-treated; nonirradiated, treated; and irradiated, nontreated groups. […] The treatment groups are determined based on the curcuminoid production levels, bioavailability, and duration of production achievable in the in vivo systems described above. A preferred treatment is animals stably producing curcuminoids following AAV8-mediated transfection of liver and providing therapeutically relevant curcuminoid concentrations in circulation. The primary alternative is local AAV-mediated transfection of tissues in the cheek pouch. Another alternative approach is HEK293-ddCCM or HEK-CCM cells encapsulated in lysine/alginate spheres and implanted s.c. or i.p. in tissue cages.

The conditions of series [3]: in vivo; cited from earlier work.
The conditions of series [4]: cited from earlier work.

With `COc1cc(/C=C/C(=O)O)ccc1O` [ferulic acid], the “effect on CellROX fluorescence / oxidation (in words)” value in series [1] is given as “Neither the presence of p-coumaric acid nor ferulic acid, nor transfection with pGL3 (encoding luciferase), had any effect”.
On to `O=C(O)/C=C/c1ccc(O)cc1` [p-coumaric acid], for which, in series [1], the “effect on CellROX fluorescence / oxidation (in words)” value is “Neither the presence of p-coumaric acid nor ferulic acid, nor transfection with pGL3 (encoding luciferase), had any effect”.
For `COc1cc(/C=C/C(=O)CC(=O)/C=C/c2ccc(O)c(OC)c2)ccc1O` [CCM, curcumin], the “reduction in CellROX fluorescence” value in series [1] (cells producing CCM from ferulic acid (4CL1/DCS/CURS1), 1 mM H2O2 for 30 min before CellROX Deep Red) is given as 37%. Besides, the “severity and duration of OM” value in series [2] was “significantly reduces severity and duration of OM”. For the same molecule, the oral bioavailability in series [3] is listed as around 1%. The half-life in plasma entry in series [4] is reported as “relatively short”.
